The text below walks through data of US20180171411A1, “GFRalpha1 AS A BIOMARKER FOR CISPLATIN-INDUCED CHEMORESISTANCE AND METASTASIS” (THE BOARD OF REGENTS OF THE UNIVERSITY OF TEXAS SYSTEM, priority 2015, published 2018).

In this assay the test system is MG-63/GFRα1 tumors. The assay can be described thus: MG-63/GFRα1 xenograft in BALB/c nude mice. The class given is in vivo. The note with it: CQ 60 mg/kg, cisplatin 3 mg/kg, once a week. The protocol:
FIG. 5. GFRα1-mediated autophagy promotes chemoresistance and tumor growth in vivo. (a) BALB/c nude mice (n =40) were injected with MG-63 cells that were transfected with either control or GFRα1 expressing vector. Tumor volume was measured every 3 or 4 days. Data are shown as mean±SEM. ** p<0.05. (b) BALB/c nude mice (n=20) were injected with MG-63 cells that were transfected with either control or GFRα1 shRNA. Tumor volume was measured every 3 or 4 days. Data are shown as mean±SEM. ** p<0.05. (c) Tumors that were generated from mice injected with MG-63 cells containing GFRα1 expressing vector were directly injected with PBS, CQ, cisplatin, or cisplatin+CQ. Tumor volume was measured every 4 days. Data are shown as mean±SEM. ** p<0.05 vs PBS, CQ, or cisplatin-treated tumors. (d) Left, representative images of immunofluorescence staining of HMGB1 in a section from tumors generated from mice injected with MG-63 cells containing GFRα1 expressing vector and then treated with PBS, CQ, cisplatin, or cisplatin+CQ. Right, quantitative analysis of percentage of cytoplasmic HMGB1-positive cells in HMGB1-positive tumors. The values are represented as a mean±s.d.m. (n=3). ** denotes p<0.05 by t-test. (e) Left, representative images of TUNEL-positive cells in a section from tumors generated from mice injected with MG-63 cells containing GFRα1 expressing vector and then treated with PBS, CQ, cisplatin, or cisplatin+CQ. Right, quantitative analysis of percentage of TUNEL-positive cells in HMGB1-positive tumors. The values are represented as a mean±s.d.m. (n=3). ** denotes p<0.05 by t-test. (0 Survival rate of mice injected with MG-63 cells containing GFRα1 expressing vector and then treated with either cisplatin or cisplatin+CQ. (g) Representative images of immunohistochemical staining of GFRα1 in a section from human osteosarcoma patient before and after cisplatin treatment. (h) Representative images of immunofluorescence staining of GFRα1 and HMGB1 in a section from human osteosarcoma patient before and after cisplatin treatment.
Tumor formation in nude mice. The mice used in this study were 6-week-old female BALB/c nude mice purchased from Orient Bio Inc. (Seongnam, Korea). […] The tumor size was measured with a caliper every 3 or 4 days. […] The tumor size was measured with a caliper every 4 days. […] were calculated from caliper measurements of tumor dimensions in mm using the formula for a prolate ellipsoid: (L×W^2)/2 where L is the longer of the two-measurements.
Statistical analysis. Survival data was analyzed by the Kaplan-Meier and log-rank test with GraphPad Prism v5.04 (GraphPad Software, La Jolla Calif.). Plating efficiency (PE, %)=(Number of colonies counted/Number of cells plated)×100. […] All values are expressed as the mean±standard deviation (SD). […]

Each structure is given as a SMILES string.

Take `N.N.[Cl][Pt][Cl]` [cisplatin, Cis-Diamineplatinum(II) dichloride]: the tumor progression entry was “allowed the tumors to survive” and the “tumor volume compared to PBS-treated mice” value is “decreased”.
